Data on ten compounds can be found in US10287305B2, “Substituted piperidine compound and use thereof” (Takeda Pharmaceutical Company Limited, priority 2016, dated 2019).

The assay deals with human orexin type 2 receptor (hOX2R) (Homo sapiens (Human), UniProt O43614). The assay is described as follows: Measurement of orexin type 2 receptor agonist activity (Experimental Example 2-1, FLIPR TETRA, intracellular Ca2+). To be noted: CHO dhfr- cells expressing hOX2R; for Emax: read-out: Emax (%); for Emax at 30 µM: value at 30 uM concentration, orexin B as full agonist = 100%. It is filed as cell-based.

The mark [1] stands for this setting: agonist activity, 10 nM human orexin B = 100%.

Sequence of human orexin type 2 receptor (hOX2R) (O43614 whole entry): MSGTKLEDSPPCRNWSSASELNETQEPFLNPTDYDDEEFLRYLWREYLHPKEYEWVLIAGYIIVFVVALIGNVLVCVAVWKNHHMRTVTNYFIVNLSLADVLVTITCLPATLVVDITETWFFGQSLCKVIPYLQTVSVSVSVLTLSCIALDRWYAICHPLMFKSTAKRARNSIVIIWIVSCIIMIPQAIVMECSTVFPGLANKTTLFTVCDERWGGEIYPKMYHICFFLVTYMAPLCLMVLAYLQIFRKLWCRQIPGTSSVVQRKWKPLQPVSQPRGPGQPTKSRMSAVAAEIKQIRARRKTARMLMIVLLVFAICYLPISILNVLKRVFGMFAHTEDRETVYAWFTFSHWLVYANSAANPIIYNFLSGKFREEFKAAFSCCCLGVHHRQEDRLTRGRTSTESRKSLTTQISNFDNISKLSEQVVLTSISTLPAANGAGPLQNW

For `COC(=O)N1CCC[C@H](NS(C)(=O)=O)[C@@H]1CO[C@H]1CC[C@@]2(CC1)OCc1ccccc12` [Example 274, methyl cis-3-((methylsulfonyl)amino)-2-(((1r,4′r)-3H-spiro[2-benzofuran-1,1′-cyclohexan]-4′-yloxy)methyl)piperidine-1-carboxylate], for the setting “FLIPR TETRA, Fluo-4AM”, the concentration giving a half-maximal response (EC50) was found to be 0.26 µM and the Emax is 118%.

Regarding `CS(=O)(=O)N[C@H]1CCCN(C(=O)C2CC2)[C@H]1COC1CCN(c2ncccn2)CC1` (relative stereo) [Example 196, N-(cis-1-(cyclopropylcarbonyl)-2-(((1-(pyrimidin-2-yl)piperidin-4-yl)oxy)methyl)piperidin-3-yl)methanesulfonamide], for the setting “FLIPR TETRA, Fluo-4AM”, the EC50 turned out to be 0.03 µM and the Emax was 104%.

Regarding `CCNC(=O)N1CCC[C@H](NS(C)(=O)=O)[C@@H]1COC1CCN(c2ccccc2)CC1` (relative stereo) [Example 123, cis-N-ethyl-3-((methylsulfonyl)amino)-2-(((1-phenylpiperidin-4-yl)oxy)methyl)piperidine-1-carboxamide], where the note is “FLIPR TETRA, Fluo-4AM”, the EC50 was found to be 0.39 µM and the maximal response (Emax) is 120%.

Take `CC(C)(O)C(=O)N1CCC[C@H](NS(C)(=O)=O)[C@@H]1CO[C@H]1CC[C@@H](c2ccccc2)CC1` (relative stereo) [Example 189, N-(cis-1-(2-hydroxy-2-methylpropanoyl)-2-(((cis-4-phenylcyclohexyl)oxy)methyl)piperidin-3-yl)methanesulfonamide]: where the note is “FLIPR TETRA, Fluo-4AM”, the concentration giving a half-maximal response (EC50) came to 0.078 µM and the Emax was found to be 88%.

On to `CS(=O)(=O)N[C@H]1CCCN(C(=O)C2CC2)[C@H]1CO[C@H]1CC[C@@H](c2cc(F)cc(F)c2)CC1` [Example 242, N-((2R,3S)-1-(cyclopropylcarbonyl)-2-(((cis-4-(3,5-difluorophenyl)cyclohexyl)oxy)methyl)piperidin-3-yl)methanesulfonamide], for which, under “FLIPR TETRA, Fluo-4AM”, the EC50 came to 0.00088 µM and the Emax was 99%.

`CC(=O)N1CCC[C@H](NS(C)(=O)=O)[C@@H]1CO[C@H]1CC[C@@H](c2ccc(F)cc2)CC1` (relative stereo) [Example 112, N-(cis-1-acetyl-2-(((cis-4-(4-fluorophenyl)cyclohexyl)oxy)methyl)piperidin-3-yl)methanesulfonamide] yielded a maximal response (Emax) at 30 µM of 94%. In addition, the EC50 under setting [1] came out at 0.42 µM.

`CC(=O)N1CCC[C@H](NS(=O)(=O)N(C)C)[C@@H]1CO[C@H]1CC[C@@H](c2ccccc2)CC1` (relative stereo) [Example 111, N′-(cis-1-acetyl-2-(((cis-4-phenylcyclohexyl)oxy)methyl)piperidin-3-yl)-N,N-dimethylsulfuric diamide]: the Emax at 30 µM amounted to 97%. For the same compound, under setting [1], the EC50 was 0.013 µM.

As to `CC(C)OC(=O)N1CCC[C@H](NS(C)(=O)=O)[C@@H]1CO[C@@H]1CCN(c2ncccn2)[C@H](C)C1` (stereo in doubt) [Example 329, isopropyl cis-2-(((cis-2-methyl-1-(pyrimidin-2-yl)piperidin-4-yl)oxy)methyl)-3-((methylsulfonyl)amino)piperidine-1-carboxylate], for the setting “FLIPR TETRA, Fluo-4AM”, the half-maximal effective concentration (EC50) amounted to 0.022 µM and the maximal effect (Emax) stood at 93%.

As to `CC1(OC(=O)N2CCC[C@H](NS(C)(=O)=O)[C@@H]2COC2CCN(c3ncccn3)CC2)CC1` (relative stereo) [Example 284, 1-methylcyclopropyl cis-3-((methylsulfonyl)amino)-2-(((1-(pyrimidin-2-yl)piperidin-4-yl)oxy)methyl)piperidine-1-carboxylate], for the setting “FLIPR TETRA, Fluo-4AM”, the EC50 was found to be 0.26 µM and the Emax was found to be 95%.

Compound `[2H]C1C([2H])[C@]([2H])(C(C)C)C([2H])C([2H])[C@]1([2H])OC[C@H]1[C@@H](NS(C)(=O)=O)CCCN1C(=O)NCC` (stereo partly drawn) [Example 104, cis-N-ethyl-2-(((cis-4-isopropyl(1,2,3,4,5,6-d6)cyclohexyl)oxy)methyl)-3-((methylsulfonyl)amino)piperidine-1-carboxamide] came in with an Emax at 30 µM of 100%. The EC50 under setting [1] was determined as 0.0022 µM.
